Test results taken from US8580823B2, “Piperidine renin inhibitors” (Vitae Pharmaceuticals, Inc., priority 2006, dated 2013).

Tests used:
[1] = target: T1, trypsin-activated recombinant human renin (Homo sapiens, UniProt P00797); assay: In vitro renin inhibition, fluorescence of internally quenched peptide substrate; type: biochemical; conditions: fluorogenic peptide substrate, pH 7.0, rt
T1 sequence (P00797 67-406): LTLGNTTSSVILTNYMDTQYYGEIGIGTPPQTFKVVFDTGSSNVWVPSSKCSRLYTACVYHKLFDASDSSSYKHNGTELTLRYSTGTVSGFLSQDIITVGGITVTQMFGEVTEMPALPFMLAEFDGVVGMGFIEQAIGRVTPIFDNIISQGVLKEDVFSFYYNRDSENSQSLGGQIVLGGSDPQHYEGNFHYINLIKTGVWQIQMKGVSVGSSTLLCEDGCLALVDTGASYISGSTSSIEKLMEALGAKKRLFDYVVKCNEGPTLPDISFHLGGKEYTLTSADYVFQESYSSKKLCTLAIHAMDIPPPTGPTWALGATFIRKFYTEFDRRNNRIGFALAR
Protocol: The sequence of this peptide corresponds to the sequence of human angiotensinogen. The following test protocol was used. All reactions were carried out in a flat bottom white opaque microtiter plate. A 4 μL aliquot of 400 μM renin substrate (DABCYL-γ-[…]) in 192 μl, assay buffer (50 mM BES, 150 mM NaCl, 0.25 mg/mL bovine serum albumin, pH7.0) was added to 4 μl, of test compound in DMSO at various concentrations ranging from 10 μM to 1 nM final concentrations. Next, 100 μL of trypsin-activated recombinant human renin (final enzyme concentration of 0.2-2 nM) in assay buffer was added, and the solution was mixed by pipetting. The increase in fluorescence at 495 nm (excitation at 340 nm) was measured for 60-360 minutes at rt using a Perkin-Elmer Fusion microplate reader. The slope of a linear portion of the plot of fluorescence-increase as a function of time was then determined, and the rate is used for calculating percent inhibition in relation to uninhibited control. […] (Wang G. T. et al. Anal. Biochem. 1993, 210, 351; Nakamura, N. et al. J. Biochem. (Tokyo) 1991, 109, 741; Murakami, K. et al. Anal Biochem. 1981, 110, 232).

[2] = target: T2, plasma renin activity (PRA) (Homo sapiens, UniProt P00797); assay: In vitro plasma renin activity (PRA) in human plasma, angiotensin I radioimmunoassay; type: biochemical; conditions: IC50 in pooled human plasma, 37° C., 90 min
T2 construct: pooled mixed-gender human plasma stabilized with EDTA; from tissue; host or cells: pooled mixed-gender human plasma (EDTA)
T2 sequence (P00797 67-406): T1 sequence (P00797 67-406)
Protocol: Incubations mixtures contained in the final volume of 250 μL 95.5 mM N,N-bis(2-hydroxyethyl)-2-aminoethanesulfonic acid, pH 7.0, 8 mM EDTA, 0.1 mM neomycin sulfate, 1 mg/mL sodium azide, 1 mM phenylmethanesulfonyl fluoride, 2% DMSO and 87.3% of pooled mixed-gender human plasma stabilized with EDTA. For plasma batches with low PRA (less than 1 ng/ml/hr) ˜2 pM of recombinant human renin was added to achieve PRA of 3-4 ng/ml/hr. The cleavage of endogenous angiotensinogen in plasma was carried out at 37° C. for 90 min and the product angiotensin I was measured by competitive radioimmunoassay using DiaSorin PRA kit.

[3] = system: double transgenic rats engineered to express human renin and human angiotensinogen; assay: In vivo blood pressure by telemetry in double transgenic rats; design: species or system rat; conditions: 6-week-old dTGRs, oral, 4 consecutive days, dosage of 3-10 mg/kg
Protocol: Double Transgenic Rats: The efficacy of the renin inhibitors can also be evaluated in vivo in double transgenic rats engineered to express human renin and human angiotensinogen (Bohlender J, Fukamizu A, Lippoldt A, Nomura T, Dietz R, Menard J, Murakami K, Luft F C, Ganten D. High human renin hypertension in transgenic rats. Hypertension 1997, 29, 428-434).
Experiments were conducted in 6-week-old double transgenic rats (dTGRs). The model has been described in detail earlier. […] The human angiotensinogen construct made up the entire human angiotensinogen gene (5 exons and 4 introns), with 1.3 kB of 5′-flanking and 2.4 kB of 3′-flanking sequences. The rats were purchased from RCC Ltd (Füllinsdorf, Switzerland). Radio telemetry transmitters were surgically implanted at 4 weeks of age. The telemetry system provided 24-h recordings of systolic, mean, diastolic arterial pressure (SAP, MAP, DAP, respectively) and heart rate (HR). Beginning on day 42, animals were transferred to telemetry cages. A 24 h telemetry reading was obtained. Rats were then dosed orally on the following 4 consecutive days (days 43-46). The rats were monitored continuously and allowed free access to standard 0.3%-sodium rat chow and drinking water.

| Compound | IC50 [1] [nM] | IC50 [2] [nM] | effect in lowering blood pressures (mean arterial blood pressure, FIG. 2) [3] |
| --- | --- | --- | --- |
| CN[C@H](CNC(=O)N1CCC[C@@H]([C@@H](OCCNC(=O)OC)c2cc(F)cc(Cl)c2)C1)C[C@H]1CCCOC1 [Compound 9, methyl 2-((R)-(3-chloro-5-fluorophenyl)((R)-1-((S)-2-(methylamino)-3-((R)-tetrahydro-2H-pyran-3-yl)propylcarbamoyl)piperidin-3-yl)methoxy)ethylcarbamate] | < 1 | < 10 |  |
| CCN[C@H](CNC(=O)N1CCC[C@@H]([C@@H](OCCNC(=O)OC)c2cc(Cl)ccc2C)C1)C[C@H]1CCCOC1 [Compound 12, methyl 2-((R)-(5-chloro-2-methylphenyl)((R)-1-((S)-2-(ethylamino)-3-((R)-tetrahydro-2H-pyran-3-yl)propylcarbamoyl)piperidin-3-yl)methoxy)ethylcarbamate] | < 10 |  |  |
| CN[C@H](CNC(=O)N1CCC[C@@H]([C@@H](OCCNC(=O)OC)c2cc(F)cc(F)c2)C1)C[C@H]1CCCOC1 [Compound 10, methyl 2-((R)-(3,5-difluorophenyl)((R)-1-((S)-2-(methylamino)-3-((R)-tetrahydro-2H-pyran-3-yl)propylcarbamoyl)piperidin-3-yl)methoxy)ethylcarbamate] | < 10 | < 10 |  |
| CN[C@H](CNC(=O)N1CCC[C@@H]([C@@H](OCCNC(=O)OC)c2cccc(Cl)c2)C1)C[C@H]1CCCOC1 [Compound 7, methyl 2-((R)-(3-chlorophenyl)((R)-1-((S)-2-(methylamino)-3-((R)-tetrahydro-2H-pyran-3-yl)propylcarbamoyl)piperidin-3-yl)methoxy)ethylcarbamate] |  |  | significant effect in lowering blood pressures |
| CN[C@H](CNC(=O)N1CCC[C@@H]([C@H](OCCNC(=O)OC)c2cc(Cl)ccc2C)C1)C[C@H]1CCCOC1 [Compound 11, methyl 2-((S)-(5-chloro-2-methylphenyl)((R)-1-((S)-2-(methylamino)-3-((R)-tetrahydro-2H-pyran-3-yl)propylcarbamoyl)piperidin-3-yl)methoxy)ethylcarbamate] | < 10 | < 10 |  |
